Here are results for 16 molecules from US11124500B2, “Disubstituted pyrazole compounds” (Eli Lilly and Company, priority 2019, dated 2021).

Data set [1] concerns the target human KHK-C (Homo sapiens (Human), UniProt P50053). As to the kind of experiment: KHK enzyme activity assay, human KHK-C (F1P production, RapidFire MS). In kind it is biochemical. The note with it: fructose 250 μM, ATP 150 μM; average ± SEM; read-out: hKHK-C IC50. On the procedure:
(§1) KHK Enzyme Activity Assay for Human KHK-C and Human KHK-A
(§2) The intrinsic potency for inhibition of KHK C or A activity may be measured using an enzymatic assay which measures the production of FIP. Compounds are prepared in DMSO and tested in a 10-point concentration curve, to create 3-fold serial dilutions of the compounds in a 96-well plate ranging from 20 μM to 1.02 nM. Enzyme is prepared in assay buffer [50 mM 4-(2-hydroxyethyl)piperazine-1-ethanesulfonic acid (HEPES), 10 mM potassium chloride, 100 mM magnesium chloride, 2 mM tris(2-carboxyethyl)phosphine (TCEP), 0.01% n-octyl glucoside] and incubated with compounds at RT for 15 min. The reaction is carried out in 100 μL volumes containing substrate concentrations of fructose (250 μM for KHK-C assay and 1.25 mM for KHK-A assay) and ATP (150 μM for both isoforms); which are further incubated at RT for 20 min. The reaction is then halted by the addition of stop buffer; consisting of 0.2% formic acid and 1 μg/ml ^13C6-fructose-6-phosphate (^13C6-F6P) internal standard. Plates are stored in −20° C. until RapidFire MS analysis.
(§3) RapidFire MS Analysis for Quantitation of F1P
(§4) An Agilent 300 RapidFire automated extraction system (Agilent, Santa Clara, Calif.) with three HPLC quaternary pumps is coupled to an Agilent 6495 triple quadrupole mass spectrometer (Agilent Technologies, Santa Clara, Calif.) equipped with an electrospray ionization (ESI) interface source. The RapidFire Mass Spec system is equipped with a reusable RapidFire C18 (type C) solid-phase extraction (SPE) cartridge (G9205 Å).
(§5) Solvent A, used for sample loading and washing, is 6 mM octylamine (Acros Organics 129495000) brought to pH 5.0 using acetic acid. Solvent B, used for sample elution, is 20% water in ACN containing 0.1% formic acid. Samples are sequentially analyzed by aspirating 10 μL onto the collection loop under vacuum directly from multiwell plates. The 10 μL of sample is loaded onto the C18 cartridge and washed using solvent A at a flow rate of 1.25 mL/min for 5000 ms. The retained analytes are then eluted to the mass spectrometer using solvent B at a flow rate of 1.25 mL/min for 5000 ms. The system is re-equilibrated using solvent at flow rate of 1.25 mL/min for 2000 ms.
(§6) The triple quadrupole mass spectrometer is equipped with an ESI source and analytes are monitored using selected reaction monitoring (SRM) in negative mode [M−H]−. F1P is monitored at m/z 259.02/96.9 and ^13C6-fructose-6-phosphate is monitored at m/z 264.99/97. The area ratio values for F1P is calculated using ^13C6-fructose-6-phospate as internal standard.

Data set [2] has as its target human KHK-A (Homo sapiens (Human), UniProt P50053). Description: KHK enzyme activity assay, human KHK-A (F1P production, RapidFire MS). Format: biochemical. The note with it: fructose 1.25 mM, ATP 150 μM; average ± SEM; read-out: hKHK-A IC50. On the procedure: as §1, §2, §3, §4, §5, §6
Data set [3] in a line: Pharmacokinetics in Sprague Dawley rats. Format: in vivo. Particulars: plasma, rat, fasted; for bioavailability: PO 2 or 3 mg/kg vs IV 1 mg/kg. On the procedure: (§7) Liquid Chromatography with Tandem Mass Spectrometry (LC-MS/MS) Method for Pharmacokinetic Assays: Samples are extracted using a protein precipitation by adding 180 μL of MeOH:ACN (1:1, v/v) containing an internal standard to 50 μL of plasma. Samples are then diluted with MeOH:Water (1:1, v/v) to get concentrations within standard curve range. Diluted samples are analyzed by LC-MS/MS using a Sciex API 4000 triple quadrupole mass spectrometer (Applied Biosystems/MDS; Foster City, Calif.) equipped with a TurboIonSpray interface, and operated in positive ion mode. The analytes are chromatographically separated using a ECHELON C18 4 um 20×2.1 mm column. LC conditions are Water/1 M ammonium bicarbonate, (2000:10, v/v) (Mobile Phase A), and MeOH/1 M ammonium bicarbonate, (2000:10, v/v) (Mobile Phase B).
Pharmacokinetics in Sprague Dawley Rats
The compound is administered by a single oral (PO; 2 or 3 mg/kg; volume of 10 mL/kg) or intravenous (IV; 1 mg/kg; volume of 1 mL/kg) dose in vehicle. Blood is collected from each animal at multiple time points between 0 and up to 48 hours post-dosage. The plasma concentrations of Example 1 and Example 2 are determined by a LC-MS/MS method as described above.

Data set [4] is described as follows: Pharmacokinetics in dogs. The note with it: beagle, plasma, dog, fed; for bioavailability: PO 2 or 3 mg/kg vs IV 1 mg/kg. In kind it is in vivo. On the procedure:
as §7
The compound is administered by a single oral (PO; 2 or 3 mg/kg; volume of 2 mL/kg) or intravenous (IV; 1 mg/kg; volume of 1 mL/kg) dose in vehicle. Blood is collected from each animal at multiple time points between 0 and up to 72 hours post-dosage. The plasma concentrations of Example 1 and Example 2 are determined by a LC-MS/MS method as described above.

The conditions of data set [5]: administered for 6 weeks, subjects with NAFLD; cited from earlier work.

Chain of human KHK-C (P50053 whole entry): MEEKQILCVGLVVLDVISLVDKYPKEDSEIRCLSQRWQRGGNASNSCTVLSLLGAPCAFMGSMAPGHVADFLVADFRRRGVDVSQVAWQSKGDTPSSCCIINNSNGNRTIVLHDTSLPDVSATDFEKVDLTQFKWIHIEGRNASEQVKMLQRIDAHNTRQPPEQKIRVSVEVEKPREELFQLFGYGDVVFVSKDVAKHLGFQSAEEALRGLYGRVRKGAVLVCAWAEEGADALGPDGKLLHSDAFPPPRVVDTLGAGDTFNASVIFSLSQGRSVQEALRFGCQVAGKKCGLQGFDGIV
Chain of human KHK-A (P50053 other isoform, or with tags, fused parts or gaps): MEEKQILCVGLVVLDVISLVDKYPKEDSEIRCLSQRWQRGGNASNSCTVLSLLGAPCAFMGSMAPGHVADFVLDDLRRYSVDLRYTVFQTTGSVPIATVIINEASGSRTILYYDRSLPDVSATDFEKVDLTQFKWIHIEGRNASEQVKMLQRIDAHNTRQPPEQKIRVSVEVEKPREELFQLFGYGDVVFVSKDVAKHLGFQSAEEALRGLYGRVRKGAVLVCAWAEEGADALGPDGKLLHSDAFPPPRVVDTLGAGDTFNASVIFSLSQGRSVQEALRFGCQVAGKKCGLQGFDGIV

Take `C[C@H]1CCN1c1nc(-c2cnn(CC(=O)N3CCNCC3)c2)cc(C(F)(F)F)n1` [Example 1, 2-[4-[2-[(2S)-2-Methylazetidin-1-yl]-6-(trifluoromethyl)pyrimidin-4-yl]pyrazol-1-yl]-1-piperazin-1-yl-ethanone]: the results for the IC50 in data set [1] and in data set [2] were 20.7 ± 3.88 nM and 24.2 ± 2.9 nM, respectively. The bioavailability (as a rule, dose-corrected exposure relative to a reference, in per cent) in data set [3] was 83%; in data set [4], 87%. Moreover, the results for the clearance in data set [3] (single IV dose 1 mg/kg) and in data set [4] (single IV dose 1 mg/kg) were 5.86 mL/min/kg and 3.41 mL/min/kg, respectively. Further, the half-life (usually the time needed for the level to fall by half in the phase considered) is 12.8 h in data set [3] (single IV dose 1 mg/kg), 12.9 h in data set [3] (single PO dose 2 or 3 mg/kg), 28 h in data set [4] (single IV dose 1 mg/kg) and 36.6 h in data set [4] (single PO dose 2 or 3 mg/kg).

For the molecule `OC[C@H]1CCN1c1nc(-c2cnn(C3CCNCC3)c2)cc(C(F)(F)F)n1` [Example 2, [(2R)-1-[4-[1-(4-Piperidyl)pyrazol-4-yl]-6-(trifluoromethyl)pyrimidin-2-yl]azetidin-2-yl]methanol], the IC50 (commonly the concentration at which inhibition is half-maximal) in data set [1] was found to be 134 ± 43.1 nM; in data set [2], 98.2 ± 25 nM. For the same molecule, the bioavailability in data set [3] is 95%; in data set [4], ~100%. Moreover, the values for the clearance in data set [3] (single IV dose 1 mg/kg) and in data set [4] (single IV dose 1 mg/kg) were 56.4 mL/min/kg and 19.6 mL/min/kg, respectively. The half-life in data set [3] (single IV dose 1 mg/kg) is 4.29 h; in data set [3] (single PO dose 2 or 3 mg/kg), 5.12 h; in data set [4] (single IV dose 1 mg/kg), 10.3 h; in data set [4] (single PO dose 2 or 3 mg/kg), 9.79 h.

For `C[C@H]1CCN1c1nc(-c2cnn(CC(O)CO)c2)cc(C(F)(F)F)c1C#N` (stereo partly drawn) [Example 24, 6-[1-(2,3-Dihydroxypropyl)pyrazol-4-yl]-2-[(2S)-2-methylazetidin-1-yl]-4-(trifluoromethyl)pyridine-3-carbonitrile], the IC50 in data set [1] came out at 7.91 nM; in data set [2], 7.29 nM.

As for `C[C@H]1CCN1c1nc(-c2cn[nH]c2)cc(C(F)(F)F)c1C#N` [Example 25, 2-[(2S)-2-Methylazetidin-1-yl]-6-(1H-pyrazol-4-yl)-4-(trifluoromethyl)pyridine-3-carbonitrile], the IC50 in data set [1] is 13.6 ± 7.2 nM; in data set [2] it was 16.9 ± 9.7 nM.

`C[C@H]1CCN1c1nc(-c2cnn(C3CCOCC3)c2)cc(C(F)(F)F)c1C#N` [Example 26, 2-[(2S)-2-Methylazetidin-1-yl]-6-(1-tetrahydropyran-4-ylpyrazol-4-yl)-4-(trifluoromethyl)pyridine-3-carbonitrile]: the figures for the IC50 in data set [1] and in data set [2] were 28.4 nM and 22.2 nM, respectively.

Turning to `C[C@H]1CCN1c1nc(-c2cnn(C3CCNCC3O)c2)cc(C(F)(F)F)c1C#N` (stereo partly drawn) [Example 27, 6-[1-(3-Hydroxy-4-piperidyl)pyrazol-4-yl]-2-[(2S)-2-methylazetidin-1-yl]-4-(trifluoromethyl)pyridine-3-carbonitrile], the IC50 in data set [1] stood at 9.21 nM; in data set [2], 4.63 nM.

In the case of `C[C@H]1CCN1c1nc(-c2cnn(CC(=O)NCCN)c2)cc(C(F)(F)F)n1` [Example 28, N-(2-Aminoethyl)-2-[4-[2-[(2S)-2-methylazetidin-1-yl]-6-(trifluoromethyl)pyrimidin-4-yl]pyrazol-1-yl]acetamide], the IC50 in data set [1] stood at 68 nM; in data set [2] it was 51 nM.

`C[C@H]1CN(C(=O)Cn2cc(-c3cc(C(F)(F)F)nc(N4CC[C@@H]4C)n3)cn2)CCN1` [Example 29, 2-[4-[2-[(2S)-2-Methylazetidin-1-yl]-6-(trifluoromethyl)pyrimidin-4-yl]pyrazol-1-yl]-1-[(3S)-3-methylpiperazin-1-yl]ethanone]: the IC50 in data set [1] turned out to be 38.6 nM; in data set [2] it was 103 nM.

Turning to `C[C@H]1CNCCN1C(=O)Cn1cc(-c2cc(C(F)(F)F)nc(N3CC[C@@H]3C)n2)cn1` [Example 30, 2-[4-[2-[(2S)-2-Methylazetidin-1-yl]-6-(trifluoromethyl)pyrimidin-4-yl]pyrazol-1-yl]-1-[(2S)-2-methylpiperazin-1-yl]ethanone], the IC50 was 46.3 nM in data set [1] and 57.8 nM in data set [2].

For `C[C@H]1CCN1c1nc(-c2cnn(CC(=O)N3CCNC(C)(C)C3)c2)cc(C(F)(F)F)n1` [Example 31, 1-(3,3-Dimethylpiperazin-1-yl)-2-[4-[2-[(2S)-2-methylazetidin-1-yl]-6-(trifluoromethyl)pyrimidin-4-yl]pyrazol-1-yl]ethanone], the figures for the IC50 in data set [1] and in data set [2] were 34.7 nM and 70.5 nM, respectively.

In the case of `C[C@@H]1CN(C(=O)Cn2cc(-c3cc(C(F)(F)F)nc(N4CC[C@@H]4C)n3)cn2)[C@@H](C)CN1` [Example 32, 1-[(2S,5R)-2,5-Dimethylpiperazin-1-yl]-2-[4-[2-[(2S)-2-methylazetidin-1-yl]-6-(trifluoromethyl)pyrimidin-4-yl]pyrazol-1-yl]ethanone], the IC50 is 13.3 nM in data set [1] and 41.5 nM in data set [2].

Regarding `C[C@H]1CCN1c1nc(-c2cnn(C3CNC3)c2)cc(C(F)(F)F)n1` [Example 33, 4-[1-(Azetidin-3-yl)pyrazol-4-yl]-2-[(2S)-2-methylazetidin-1-yl]-6-(trifluoromethyl)pyrimidine], the IC50 in data set [1] was determined as 4.9 ± 1.31 nM; in data set [2], 3.63 ± 1.13 nM.

On to `C[C@H]1CCN1c1nc(-c2cnn(C3CN(C)C3)c2)cc(C(F)(F)F)n1` [Example 34, 2-[(2S)-2-Methylazetidin-1-yl]-4-[1-(1-methylazetidin-3-yl)pyrazol-4-yl]-6-(trifluoromethyl)pyrimidine], for which the IC50 in data set [1] is 3.71 ± 0.178 nM; in data set [2] it was 5.41 ± 6.13 nM.

`C[C@H]1[C@H](O)CN1c1nc(-c2cnn(C3CN(C)C3)c2)cc(C(F)(F)F)n1` [Example 35, (2S,3R)-2-Methyl-1-[4-[1-(1-methylazetidin-3-yl)pyrazol-4-yl]-6-(trifluoromethyl)pyrimidin-2-yl]azetidin-3-ol]: the IC50 worked out at 2.63 nM in data set [1] and 1.59 nM in data set [2].

As for `CN1CC(n2cc(-c3cc(C(F)(F)F)nc(N4CC[C@@H]4CO)n3)cn2)C1` [Example 36, [(2R)-1-[4-[1-(1-Methylazetidin-3-yl)pyrazol-4-yl]-6-(trifluoromethyl)pyrimidin-2-yl]azetidin-2-yl]methanol], the IC50 in data set [1] stood at 10 nM; in data set [2] it was 3.98 nM.

Consider `C[C@H]1CCN1c1nc(N2C[C@@H]3[C@@H](CC(=O)O)[C@@H]3C2)cc(C(F)(F)F)n1` [PF-06835919], for which the “whole liver fat (magnetic resonance imaging-proton density fat fraction)” value in data set [5] is recorded as “reduces whole liver fat”.
